Results reported in US20130052173A1, “USE OF MENADIONE AND DERIVATIVES THEREOF FOR TREATING BIOMASSES” (priority 2010, published 2013).

Assays:
Assay type in all cases: cell-based
[1] = tested on: Lactobacillus fermentum; assay: Bioethanol fermentation of 33% corn flour dispersion with Saccharomyces cerevisiae contaminated with Lactobacillus fermentum; conditions: for Ethanol / Glucose (residual, non-fermented) / Lactic acid: 72 hours at 32° C., Sc + Lf inoculum, Virg 2 ppm, MSB 20 ppm
Procedure: The capacity of menadione sodium bisulfite to contrast the negative effect of bacterial contamination on the production of bioethanol is tested by using a 33% aqueous dispersion of corn flour, which is a typical substrate used in the bioethanol industry.
Using this dispersion, four parts of 40 ml each are prepared and are placed in four separate flasks (procedure described by Bischoff K. M. et al. in Biotechnology and Bioengineering 2009, 103, 117-122).
Flask 1 (witness) receives the addition of 0.5 ml of inoculum (Sc) of Saccharomyces cerevisiae (1×10^7 ufc/ml). Flask 2 receives the addition of 0.5 ml of inoculum (Sc) of Saccharomyces and 0.5 ml of inoculum (Lf) of Lactobacillus fermentum (1×10^8 ufc/ml); flask 3 receives the addition of 0.5 ml of inoculum (Sc) of Saccharomyces, 0.5 ml of inoculum (Lf) of Lactobacillus fermentum and 0.5 ml of a solution of virginiamycin with such a titer as to have, in the flask, a concentration of antibiotic equal to 2 mg/l. Flask 4 receives the addition of 0.5 ml of inoculum (Sc) of Saccharomyces, 0.5 ml of inoculum (Lf) of Lactobacillus fermentum and 0.5 ml of a solution of menadione sodium bisulfite (1600 mg/l ) with such a titer as to have in the flask a concentration of MSB equal to 20 ppm by weight.
Then the four flasks are kept under bland agitation and at the temperature of 32° C. for 72 hours. At the end of the incubation period, the four parts are analyzed for their content of ethanol, glucose and lactic acid.

[2] = tested on: Lactobacillus plantarum; assay: Pasteurized 20% molasses solution inoculated with Lactobacillus plantarum; conditions: 48 hours at 25° C., MSB 50 ppm, MSB-C 100 ppm; for Lactic acid / Ufc/l (bacterial load): virginiamycin 2 mg/l
Procedure: A 20% solution of molasses is pasteurized at 65° C. for 30 minutes. After cooling, five 50-ml parts are formed: of these, one is kept as a control and the remaining four each receive the addition of 1 ml of inoculum (Lp) of Lactobacillus plantarum (1×10^5 ufc/ml). The third part then receives the addition of 2 mg/l of virginiamycin, the fourth part receives the addition of 50 ppm of menadione sodium bisulfite, while the fifth part receives the addition of 100 ppm of a mixture of menadione sodium bisulfite and sodium bisulfite known as MSB-C (composition of mixture: 65% MSB and 35% sodium bisulfite).

[3] = tested on: Oenococcus oeni; assay: Pasteurized 30% glycerol solution inoculated with Oenococcus oeni; conditions: 48 hours at 25° C.; Penicillin 10 mg/l, emulsion A 20 mg/l, emulsion B 150 mg/l
Procedure: A 30% solution of glycerol is pasteurized at 65° C. for 30 minutes. After cooling, four 50-ml parts are formed, each of which receives the addition of 1 ml of inoculum (00) of Oenococcus oeni, so as to have a bacterial load of 1×10^5 ufc/l.
The first part is kept as a control; the second part receives the addition of 10 mg/l of Penicillin (Pen); the third part receives the addition of 20 mg/l of an emulsion A of menadione (composition: 50% menadione, 50% ethanol); the fourth part receives the addition of 150 mg/l of an emulsion B of menadione (composition: menadione 10%, ricinoleate 90%).

[4] = tested on: broad spectrum of microorganisms, including yeasts; assay: Biocidal activity in a liquid biomass; conditions: weight of menadione/total weight of the biomass and of the compound
[5] = tested on: Saccharomyces cerevisiae; assay: Growth of Saccharomyces cerevisiae strains in liquid biomass containing menadione

Compound: CC1(S(=O)(=O)[O-])CC(=O)c2ccccc2C1=O.[Na+] (centres unmarked) [MSB, menadione sodium bisulfite]
- Ethanol [1]: 111.3 g/L
- Glucose (residual, non-fermented) [1]: 6.2 g/L
- Lactic acid [1]: 0.5 g/L
- Effect on the bacterial inoculum ([1]; flask 4, MSB 20 ppm): able to inhibit the bacterial inoculum
- Effect on growth of the yeast ([1]; flask 4, MSB 20 ppm, Saccharomyces cerevisiae): has not harmed the growth of the yeast
- Lactic acid [2]: 0.40 g/L
- Ufc/l (bacterial load) [2]: <1 × 10^3 Ufc/l
- Effect on the bacterial inoculum [2]: inhibiting completely the bacterial inoculum

Compound: Penicillin
- Ufc/l (bacterial load) [3]: <1 × 10^2 Ufc/l

Compound: CC1=CC(=O)c2ccccc2C1=O [menadione, 2-methylnaphthalene-1,4-dione]
- Concentration from which biocidal activity is exhibited [4]: at least 500 ppm
- Menadione concentration that allows growth of all the tested strains ([5]; liquid biomass): below 400 ppm
- Growth response of Saccharomyces cerevisiae ([5]; menadione concentration between 400 and 500 ppm): varies depending on the tested strains

Compound: virginiamycin [reference compound]
- Ethanol [1]: 108.2 g/L
- Glucose (residual, non-fermented) [1]: 6.4 g/L
- Lactic acid [1]: 0.4 g/L
- Lactic acid [2]: 0.15 g/L
- Ufc/l (bacterial load) [2]: <1 × 10^2 Ufc/l
